Measured values reported in patent US20260217699A1, “BERBERINE TAUROURSODEOXYCHOLATE COMPOSITIONS AND METHODS THEREOF” (SHENZHEN HIGHTIDE BIOPHARMACEUTICAL LTD., priority 2023, published 2026).
Where two headings read alike, the source gives them in different places.

Columns and labels:
[1] = Rapid dynamic vapor sorption (Fast DVS) of Form A; assay type: physicochemical
Experimental: (§1) The synthesized BTUDC was designated as crystalline form A (Form A), and its XRPD diffraction and other related characterization data are shown in FIGS. 11-15. […] (peak at 43° C.), and an endothermic peak at about 280° C.

[2] = assay type: physicochemical; conditions: for Purity/%: initial purity 99.45%
Experimental: The standard XRPD patterns were collected using a Panalytical EMPYREAN (PANalytical, UK). The X-ray source was a Cu tube that was operated at 45 kV and 40 mA. Powder samples were prepared on zero-background Si holders using manual light pressure to keep the sample surface flat. Each sample was analyzed from 3 to 45° (2θ) with an effective step size of 0.013° 20. The measurement time of each sample was 3.5 min.
The stability of Form A was studied under high temperature (60° C.), high humidity (25° C./92.5% RH), light (25° C./4500 Lux), and accelerated (40° C./75% RH) conditions, and the samples were taken at 7 and 15 days for XRPD characterization and HPLC tests, respectively, and the results are shown in Tables 3-4 and FIG. 17.

[3] = Thermal transcrystallization experiment (variable temperature XRPD); assay type: physicochemical; conditions: heating to 150° C. and back to room temperature
Experimental: The form conversion by heating was carried out using an online variable temperature XRPD Malvern PANalytical Aeris (Malvern Panalytical, UK). The X-ray source was a Cu tube that was operated at 40 kV and 7.5 mA. Powder samples were prepared on zero-background Si holders using manual light pressure to keep the sample surface flat. Each sample was analyzed from 3 to 40° (2θ) with an effective step size of 0.02° 20. The measurement time of each sample was 13 min. The sample was placed on a BTS500 hot stage (Anton Paar, AT) to collected XRPD at RT, heated to the target temperature at 20° C./min and held for 10 min before XRPD analysis. The sample was then cooled to RT and characterized by XRPD.
as §1

[4] = Accelerated 40° C./75% RH, 7 Days
[5] = Accelerated 40° C./75% RH, 15 Days
[6] = High Humidity 25° C./92.5% RH, 7 Days
[7] = High Humidity 25° C./92.5% RH, 15 Days
[8] = Light Exposure 25° C./4500 Lux, 7 Days
[9] = Light Exposure 25° C./4500 Lux, 15 Days

COc1ccc2cc3[n+](cc2c1OC)CCc1cc2c(cc1-3)OCO2.C[C@H](CCC(=O)NCCS(=O)(=O)[O-])[C@H]1CC[C@H]2[C@@H]3[C@@H](O)C[C@@H]4C[C@H](O)CC[C@]4(C)[C@H]3CC[C@]12C [Form A, berberine tauroursodeoxycholate]
adsorption weight gain ([1]; at 80% RH): about 0.46% | desorption weight gain ([1]; at 80% RH): about 0.49% | adsorption weight gain ([1]; at 95% RH): about 0.74% | change in crystalline shape after the DVS test (XRPD) ([1]; compared to the pre-test): did not undergo any change in crystalline shape | XRPD Changes [2, 4]: No | Purity/% [2, 4]: 99.44% | XRPD Changes [2, 5]: No | Purity/% [2, 5]: 99.41% | Relative Peak Area (%) ([2]; HPLC main peak RRT 1.00, Accelerated 15 Days, Day 0: 99.45): 99.41% | Relative Peak Area (%) ([2]; HPLC main peak RRT 1.00, High Humidity 15 Days, Day 0: 99.45): 99.44% | Relative Peak Area (%) ([2]; HPLC main peak RRT 1.00, High Temp. 15 Days, Day 0: 99.45): 99.24% | Relative Peak Area (%) ([2]; HPLC main peak RRT 1.00, Light Exposure 15 Days, Day 0: 99.45): 98.53% | Relative Peak Area (%) ([2]; HPLC peak RRT 0.39, Light Exposure 15 Days, Day 0: /): 0.05% | Relative Peak Area (%) ([2]; HPLC peak RRT 0.55, Light Exposure 15 Days, Day 0: /): 0.06% | Relative Peak Area (%) ([2]; HPLC peak RRT 0.70, Accelerated 15 Days, Day 0: 0.05): 0.07% | Relative Peak Area (%) ([2]; HPLC peak RRT 0.70, High Humidity 15 Days, Day 0: 0.05): 0.07% | Relative Peak Area (%) ([2]; HPLC peak RRT 0.70, High Temp. 15 Days, Day 0: 0.05): 0.10% | Relative Peak Area (%) ([2]; HPLC peak RRT 0.70, Light Exposure 15 Days, Day 0: 0.05): 0.77% | Relative Peak Area (%) ([2]; HPLC peak RRT 0.73, Light Exposure 15 Days, Day 0: /): 0.03% | Relative Peak Area (%) ([2]; HPLC peak RRT 0.76, Light Exposure 15 Days, Day 0: /): 0.07% | Relative Peak Area (%) ([2]; HPLC peak RRT 0.79, Light Exposure 15 Days, Day 0: /): 0.05% | Relative Peak Area (%) ([2]; HPLC peak RRT 0.82, Accelerated 15 Days, Day 0: 0.13): 0.13% | Relative Peak Area (%) ([2]; HPLC peak RRT 0.82, High Humidity 15 Days, Day 0: 0.13): 0.13% | Relative Peak Area (%) ([2]; HPLC peak RRT 0.82, High Temp. 15 Days, Day 0: 0.13): 0.13% | Relative Peak Area (%) ([2]; HPLC peak RRT 0.82, Light Exposure 15 Days, Day 0: 0.13): 0.11% | Relative Peak Area (%) ([2]; HPLC peak RRT 0.84, Accelerated 15 Days, Day 0: 0.06): 0.07% | Relative Peak Area (%) ([2]; HPLC peak RRT 0.84, High Humidity 15 Days, Day 0: 0.06): 0.06% | Relative Peak Area (%) ([2]; HPLC peak RRT 0.84, High Temp. 15 Days, Day 0: 0.06): 0.06% | Relative Peak Area (%) ([2]; HPLC peak RRT 0.84, Light Exposure 15 Days, Day 0: 0.06): 0.06% | Relative Peak Area (%) ([2]; HPLC peak RRT 0.90, Accelerated 15 Days, Day 0: 0.31): 0.32% | Relative Peak Area (%) ([2]; HPLC peak RRT 0.90, High Humidity 15 Days, Day 0: 0.31): 0.30% | Relative Peak Area (%) ([2]; HPLC peak RRT 0.90, High Temp. 15 Days, Day 0: 0.31): 0.48% | Relative Peak Area (%) ([2]; HPLC peak RRT 0.90, Light Exposure 15 Days, Day 0: 0.31): 0.27% | XRPD Changes [2, 6]: No | Purity/% [2, 6]: 99.44% | XRPD Changes [2, 7]: No | Purity/% [2, 7]: 99.44% | XRPD Changes ([2]; High Temp. 60° C., 7 Days): No | Purity/% ([2]; High Temp. 60° C., 7 Days): 99.28% | XRPD Changes ([2]; High Temp. 60° C., 15 Days): No | Purity/% ([2]; High Temp. 60° C., 15 Days): 99.24% | XRPD Changes [2, 8]: No | Purity/% [2, 8]: 98.92% | XRPD Changes [2, 9]: No | Purity/% [2, 9]: 98.53% | change in chemical purity (HPLC) ([2]; high temperature, high humidity and accelerated conditions for 15 days): no significant change | change in chemical purity (HPLC) ([2]; light conditions for 15 days): significant decrease | crystalline form during heating [3]: remained unchanged
